Values of other authors as cited in patent US20060013862A1, “Onychomycosis: a new process for cure” (priority 2004, published 2006).

System: onychomycosis
[1] = itraconazole vs terbinafine-treated patients

## CN(C/C=C/C#CC(C)(C)C)Cc1cccc2ccccc12 [terbinafine]
[1]
  Mycological relapse rate: 23%
  clinical relapse rate: 21%
Share of treated subjects (34 of 74 terbinafine)
  Mycological cure without second intervention treatment: 46%
